{"source": "paper PMC4604475", "about": "(Scientific Reports, 2015)", "key": {"[1]": {"assay": "Hydrolysis kinetics in aqueous PBS 0.1 M, pH 6.8, 37 °C (intestinal conditions)", "assay_type": "physicochemical", "details": "for half-life at 5 μM: 0.1 M PBS buffer, 5 μM compound; for 10^2 * kII, pseudo first-order rate constant, disubstituted to monosubstituted / 10^2 * kIII, pseudo first-order rate constant, trisubstituted to disubstituted: value ± standard error of fit", "excerpt": "(§1) There are two possible isomeric disubstituted intermediates and, likewise, two monosubstituted intermediates. By HPLC-UV and HPLC-MS analyses in most cases we were able to detect and separate all of them. However, to simplify the kinetic analysis of the data we considered each pair of isomeric intermediates, resulting from the first and second hydrolysis steps, as a single species, i.e. the two disubstituted and the two monosubstituted intermediates were handled as species II and I, respectively (Fig. 3). Fitting of the experimental data was then performed considering consecutive pseudo first order reactions and using a set of equations analogous to those described by Kozerski et al.[55]\nThe stability of all new compounds was tested in aqueous media imitating gastric (0.1 N HCl, NormaFix) and intestinal (0.1 M PBS buffer, pH 6.8) conditions. A 5 μM solution of the compound was prepared from a 5 mM stock solution in DMSO, and incubated at 37 °C for 24 hours; samples withdrawn at different times were analysed by HPLC-UV. Hydrolysis products were identified by HPLC/ESI-MS analysis of selected samples. Non-linear curve fitting was performed using Origin 8.0 data analysis software, using the equations described in[55][61]."}, "[2]": {"assay": "Stability (hydrolysis kinetics) in rat whole blood", "assay_type": "in vitro ADME", "details": "37 °C; for kIII, pseudo first-order rate constant, trisubstituted to disubstituted: value ± standard error of fit; for half-life at 5 μM: whole blood (heparinised), 5 μM compound", "excerpt": "as §1\nRats were anesthetised and blood was withdrawn from the jugular vein, and transferred into tubes containing heparin. Blood samples (1 mL) were spiked with 5 μM compound (dilution from a 5 mM stock solution in DMSO), and incubated at 37 °C for 4 hours (the maximum period allowed by blood stability). Aliquots were taken after 10 min, 30 min, 1 h, 2 h and 4 h and treated as described below (blood sample treatment and analysis). Cleared blood samples were finally subjected to HPLC-UV analysis.\n(§2) Before starting the treatment, 4,4′-dihydroxybiphenyl was added as internal standard to a carefully measured blood volume (25 μM final concentration). 0.1 vol of 0.6 M TEA (pH 8.0) and 4 vol of MeOH were then added to the blood samples, which were then sonicated (2 min) and centrifuged (12,000 g, 7 min, 4 °C). The supernatant was finally collected and stored at −20 °C. Before analysis, MeOH was evaporated off at room temperature using a Univapo 150H (UniEquip) vacuum concentrator centrifuge, and up to 40 μL of ACN were added to precipitate residual proteins. After centrifugation (12,000 g, 5 min, 4 °C), cleared samples were directly subjected to HPLC-UV analysis. Metabolites and hydrolysis products were identified by comparison of chromatographic retention time with true samples or by HPLC/ESI-MS analysis."}, "[3]": {"assay": "Blood pharmacokinetics after oral (intragastric) administration to rats", "assay_type": "in vivo", "details": "rat, oral 88 μmol/kg", "description": "Derivatives 2–5 were then tested for their in vivo absorption and metabolism by performing pharmacokinetic studies after oral administration to rats. Each compound was administered as a single intragastric bolus, in an equimolar dose/kg body weight (88 μmol/kg). Blood samples were taken at different time points over a 24 h period, treated and analyzed as described in the Materials and Methods section. Each experiment was replicated at least 3 times.\nas §2\nInternal standard recovery from the treatment used to extract resveratrol-AA derivatives was 91.8 ± 10.7%. The recovery of 3, expressed as ratio to the recovery of internal standard, was 0.633 ± 0.088. […] Knowledge/assumption of these ratios allowed us to determine the unknown amount of analyte in a blood sample by measuring the recovery of internal standard.\nSince sample treatment includes an evaporation/concentration step, LOD and LOQ were determined relatively to the analytical part of the method (HPLC/UV analysis).\nDerivatives 2–5 were administered to overnight-fasted male Wistar rats from the facility of the Department of Biomedical Sciences, University of Padova, as a single intragastric dose (88 μmol/Kg, dissolved in 250 μl DMSO). Blood samples were obtained by the tail bleeding technique: before drug administration, rats were anesthetised with isoflurane and the tip of the tail was cut off; blood samples (80–100 μL each) were then taken from the tail tip at different time points after drug administration. Blood was collected in heparinised tubes, kept in ice and treated as described above within 10 min."}, "[4]": {"details": "oral administration of an equimolar amount of resveratrol itself; cited from earlier work"}}, "data": [{"smiles": "CC(C)CC(NC(=O)Oc1ccc(/C=C/c2cc(OC(=O)NC(CC(C)C)C(=O)O)cc(OC(=O)NC(CC(C)C)C(=O)O)c2)cc1)C(=O)O", "note": "(centres unmarked) [Derivative 2, (E)-2,2′-((((5-(4-(((1-carboxy-3-methylbutyl)carbamoyl)oxy)styryl)-1,3-phenylene)bis(oxy))bis(carbonyl))bis(azanediyl))bis(4-methylpentanoic acid)]", "values": [{"measurement": "half-life at 5 μM", "setting": "[1]", "value": "> 24", "unit": "h"}, {"measurement": "10^2 * kII, pseudo first-order rate constant, disubstituted to monosubstituted", "setting": "[1]", "value": "0.9 ± 0.2", "unit": "h^−1"}, {"measurement": "10^2 * kIII, pseudo first-order rate constant, trisubstituted to disubstituted", "setting": "[1]", "value": "1.98 ± 0.03", "unit": "h^−1"}, {"measurement": "kIII, pseudo first-order rate constant, trisubstituted to disubstituted", "setting": "[2]", "value": "0.57 ± 0.06", "unit": "h⁻¹"}, {"measurement": "half-life at 5 μM", "setting": "[2]", "value": 1, "unit": "h"}]}, {"smiles": "CCC(C)C(NC(=O)Oc1ccc(/C=C/c2cc(OC(=O)NC(C(=O)O)C(C)CC)cc(OC(=O)NC(C(=O)O)C(C)CC)c2)cc1)C(=O)O", "note": "(centres unmarked) [Derivative 3, (E)-2,2′-((((5-(4-(((1-carboxy-2-methylbutyl)carbamoyl)oxy)styryl)-1,3-phenylene)bis(oxy))bis(carbonyl))bis(azanediyl))bis(3-methylpentanoic acid)]", "values": [{"measurement": "level of disubstituted hydrolysis products (II) in blood", "setting": "[3]", "value": "about as high as that of their precursor"}, {"measurement": "sulfated or glucuronidated species in the bloodstream", "setting": "[3]", "value": "neither sulfated nor glucuronidated species appeared in the bloodstream"}, {"measurement": "concentration of prodrug in blood", "setting": "[3]; about one hour after administration, remained around this level for several hours", "value": "higher than 0.5 μM"}, {"measurement": "half-life at 5 μM", "setting": "[1]", "value": "> 24", "unit": "h"}, {"measurement": "10^2 * kII, pseudo first-order rate constant, disubstituted to monosubstituted", "setting": "[1]", "value": "0.4 ± 0.4", "unit": "h^−1"}, {"measurement": "10^2 * kIII, pseudo first-order rate constant, trisubstituted to disubstituted", "setting": "[1]", "value": "2.21 ± 0.02", "unit": "h^−1"}, {"measurement": "kIII, pseudo first-order rate constant, trisubstituted to disubstituted", "setting": "[2]", "value": "0.63 ± 0.04", "unit": "h⁻¹"}, {"measurement": "half-life at 5 μM", "setting": "[2]", "value": 1, "unit": "h"}]}, {"smiles": "CC(O)C(NC(=O)Oc1ccc(/C=C/c2cc(OC(=O)NC(C(=O)O)C(C)O)cc(OC(=O)NC(C(=O)O)C(C)O)c2)cc1)C(=O)O", "note": "(centres unmarked) [Derivative 4, (E)-2,2′-((((5-(4-(((1-carboxy-2-hydroxypropyl)carbamoyl)oxy)styryl)-1,3-phenylene)bis(oxy))bis(carbonyl))bis(azanediyl))bis(3-hydroxybutanoic acid)]", "values": [{"measurement": "appearance in blood of resveratrol, products of partial hydrolysis (II and I) or any metabolites", "setting": "[3]", "value": "did not result in the appearance in blood samples of detectable amounts"}, {"measurement": "half-life at 5 μM", "setting": "[1]", "value": 15, "unit": "h"}, {"measurement": "10^2 * kII, pseudo first-order rate constant, disubstituted to monosubstituted", "setting": "[1]", "value": "1.4 ± 0.1", "unit": "h^−1"}, {"measurement": "10^2 * kIII, pseudo first-order rate constant, trisubstituted to disubstituted", "setting": "[1]", "value": "5.30 ± 0.08", "unit": "h^−1"}, {"measurement": "kIII, pseudo first-order rate constant, trisubstituted to disubstituted", "setting": "[2]", "value": "3.9 ± 0.2", "unit": "h⁻¹"}, {"measurement": "half-life at 5 μM", "setting": "[2]", "value": 0.17, "unit": "h"}]}, {"smiles": "O=C(NC(Cc1ccccc1)C(=O)O)Oc1ccc(/C=C/c2cc(OC(=O)NC(Cc3ccccc3)C(=O)O)cc(OC(=O)NC(Cc3ccccc3)C(=O)O)c2)cc1", "note": "(centres unmarked) [Derivative 5, (E)-2,2′-((((5-(4-(((1-carboxy-2-phenylethyl)carbamoyl)oxy)styryl)-1,3-phenylene)bis(oxy))bis(carbonyl))bis(azanediyl))bis(3-phenylpropanoic acid)]", "values": [{"measurement": "appearance in blood of resveratrol, products of partial hydrolysis (II and I) or any metabolites", "setting": "[3]", "value": "did not result in the appearance in blood samples of detectable amounts"}, {"measurement": "half-life at 5 μM", "setting": "[1]", "value": 17, "unit": "h"}, {"measurement": "10^2 * kII, pseudo first-order rate constant, disubstituted to monosubstituted", "setting": "[1]", "value": "1.36 ± 0.04", "unit": "h^−1"}, {"measurement": "10^2 * kIII, pseudo first-order rate constant, trisubstituted to disubstituted", "setting": "[1]", "value": "4.25 ± 0.02", "unit": "h^−1"}, {"measurement": "kIII, pseudo first-order rate constant, trisubstituted to disubstituted", "setting": "[2]", "value": "1.86 ± 0.06", "unit": "h⁻¹"}, {"measurement": "half-life at 5 μM", "setting": "[2]", "value": 0.3, "unit": "h"}]}, {"smiles": "Oc1ccc(/C=C/c2cc(O)cc(O)c2)cc1", "note": "[resveratrol, 3,5, 4′-trihydroxy-trans-stilbene]", "values": [{"measurement": "time of peak blood concentration of resveratrol", "setting": "[4]", "value": "about 10 minutes"}]}]}
